TGI and GI50 data for ten compounds are collected here from PubChem BioAssay (NCI).

Structures are written as SMILES. Where “and” joins values, the source holds several entries; their conditions need not be identical. Identical values can stand only once.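 Assay format: 96-well plates, 48-hour exposure. GI50 is the concentration that inhibits growth by half. TGI is the concentration that stops growth completely.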 Some results are limits rather than exact numbers.

Test systems include EKVX NSCLC; HT29 colon; IGROV1 ovarian; K-562 leukemia; M14 melanoma; SK-MEL-28 melanoma; SN12C renal; SW-620 colon; U251 CNS; UO-31 renal.
What all share (assay): NCI anticancer screen, dose series, 48 h

Regarding `CC1S(=O)(=O)OCCOS1(=O)=O`, the TGI with EKVX NSCLC, in the assay with HT29 colon, with IGROV1 ovarian, in the assay on K-562 leukemia, in the assay with M14 melanoma and with SK-MEL-28 melanoma was above 100 µM each time. The TGI in the assay with SN12C renal, in the assay on SW-620 colon, in the assay with U251 CNS and in the assay with UO-31 renal was above 100 µM each time.

Regarding `COc1cc(-c2cn(-c3ccc(Cl)cc3)c(C)c2C(=O)C(F)(F)F)cc(OC)c1OC`, the GI50 was 51.3 µM with EKVX NSCLC; 73.2 µM with HT29 colon; above 100 µM in the assay with IGROV1 ovarian; 22.7 µM in the assay with K-562 leukemia; above 100 µM with M14 melanoma; above 100 µM in the assay on SK-MEL-28 melanoma. The GI50 with SN12C renal is 12.7 µM; with SW-620 colon it was above 100 µM; in the assay on U251 CNS, above 100 µM; in the assay with UO-31 renal, 19.2 µM. Moreover, the TGI in the assay on EKVX NSCLC, with HT29 colon, with IGROV1 ovarian, in the assay with K-562 leukemia, in the assay on M14 melanoma and in the assay with SK-MEL-28 melanoma was above 100 µM throughout. Further, the TGI with SN12C renal, with SW-620 colon, with U251 CNS and in the assay with UO-31 renal was above 100 µM each time.

In the case of `Cc1cc(C(C#N)c2ccc(Cl)cc2)c(Cl)cc1NC(=O)c1cc(I)cc(I)c1O` (stereo not given), the GI50 is 6.71 µM and 13.2 µM in the assay with EKVX NSCLC; 7.23 µM and 18.6 µM in the assay on HT29 colon; 10.5 µM and 16.1 µM with IGROV1 ovarian; 15.5 µM in the assay on K-562 leukemia; 14.7 µM and 16.3 µM in the assay on M14 melanoma; 5.42 µM and 14.8 µM with SK-MEL-28 melanoma. Further, the GI50 in the assay on SN12C renal is 3.57 µM and 15.4 µM; with SW-620 colon it was 6.91 µM and 16.7 µM; in the assay with U251 CNS, 6.1 µM and 16 µM; with UO-31 renal it was 14.7 µM and 14.8 µM. Moreover, the TGI with EKVX NSCLC is 31.1 µM and 33.7 µM; with HT29 colon, 22.6 µM and 40.4 µM; in the assay on IGROV1 ovarian it was 40.9 µM and 36.5 µM; with K-562 leukemia it was 47.5 µM; in the assay with M14 melanoma, 29.9 µM and 34.2 µM; in the assay on SK-MEL-28 melanoma, 19.7 µM and 30.3 µM. The TGI was 35.6 µM and 39.2 µM in the assay with SN12C renal; 22.6 µM and 34.6 µM with SW-620 colon; 33.4 µM and 38.2 µM in the assay with U251 CNS; 31.4 µM and 35.1 µM in the assay on UO-31 renal.

For the compound `Clc1nc(Cl)c2ncn(Cc3ccc(COc4cccc(OCc5ccc(Cn6cnc7c(Cl)nc(Cl)nc76)cc5)c4)cc3)c2n1`, the GI50 is 91.4 µM with EKVX NSCLC; above 100 µM in the assay on HT29 colon; 69.4 µM in the assay with IGROV1 ovarian; 25.9 µM in the assay on K-562 leukemia; 21.9 µM in the assay on M14 melanoma; 52.8 µM in the assay with SK-MEL-28 melanoma. Moreover, the GI50 with SN12C renal was 92.4 µM; in the assay with SW-620 colon, above 100 µM; with U251 CNS, 19.8 µM; in the assay on UO-31 renal, 51.5 µM. The TGI in the assay on EKVX NSCLC is above 100 µM; in the assay with HT29 colon it was above 100 µM; in the assay with IGROV1 ovarian, above 100 µM; in the assay on K-562 leukemia it was above 100 µM; in the assay with M14 melanoma, 85.9 µM; with SK-MEL-28 melanoma it was above 100 µM. In addition, the TGI in the assay on SN12C renal, with SW-620 colon, with U251 CNS and in the assay with UO-31 renal was above 100 µM in each case.

For `Cc1cccc(C(C)C)c1NC(=O)C(=O)CC(=O)c1c(C)n([O-])c2ccccc2[n+]1=O`, the TGI was above 100 µM in the assay on EKVX NSCLC; above 100 µM in the assay with HT29 colon; above 100 µM in the assay on IGROV1 ovarian; above 100 µM in the assay with K-562 leukemia; 95.3 µM in the assay on M14 melanoma; above 100 µM with SK-MEL-28 melanoma. Further, the TGI in the assay on SN12C renal was 96.7 µM; with SW-620 colon, above 100 µM; in the assay with U251 CNS, 95.9 µM; in the assay with UO-31 renal, above 100 µM.

With `CCCCCCCCCCCCCC(=O)CBr`, the TGI with EKVX NSCLC came out at 39.9 µM; with HT29 colon, 30.5 µM; in the assay on IGROV1 ovarian, 15.1 µM; in the assay on K-562 leukemia, 17.4 µM; in the assay with M14 melanoma it was 26.6 µM; in the assay on SK-MEL-28 melanoma, 30.7 µM. For the same compound, the TGI came to 43.3 µM with SN12C renal, 30.2 µM with SW-620 colon, 28.8 µM with U251 CNS and 24 µM in the assay with UO-31 renal.

Take `Cc1ccc(C(O)c2cnc(C)n2Cc2ccccc2)cc1` (stereo not given): the TGI with EKVX NSCLC, in the assay with HT29 colon, in the assay with IGROV1 ovarian, with K-562 leukemia, in the assay on M14 melanoma and in the assay with SK-MEL-28 melanoma was above 100 µM each time. For the same compound, the TGI in the assay on SN12C renal, with SW-620 colon, in the assay on U251 CNS and with UO-31 renal was above 100 µM in each case.

In the case of `COc1nc2nccc-2c2occn12`, the TGI in the assay with EKVX NSCLC, with HT29 colon, with IGROV1 ovarian, in the assay on K-562 leukemia, in the assay on M14 melanoma and in the assay on SK-MEL-28 melanoma was above 100 µM in each case. Further, the TGI in the assay with SN12C renal, in the assay on SW-620 colon, in the assay on U251 CNS and in the assay on UO-31 renal was above 100 µM throughout.

`O=C1/C(=C/c2ccc(O)cc2)COc2ccc(-c3ccccc3)cc21`: the GI50 with EKVX NSCLC is 13.4 µM; in the assay on HT29 colon it was 3.35 µM; in the assay with IGROV1 ovarian, 6.12 µM; with K-562 leukemia it was 2.57 µM; in the assay on M14 melanoma, 12.2 µM; in the assay with SK-MEL-28 melanoma, 10.1 µM. The GI50 in the assay with SN12C renal is 7.29 µM; in the assay on SW-620 colon it was 2.8 µM; with U251 CNS it was 5.1 µM; in the assay on UO-31 renal, 4.64 µM. In addition, the TGI with EKVX NSCLC is 32.1 µM; in the assay on HT29 colon it was 11.5 µM; with IGROV1 ovarian it was 20.8 µM; in the assay with K-562 leukemia it was above 39.3 µM; in the assay on M14 melanoma, 39.1 µM; in the assay on SK-MEL-28 melanoma it was 24.5 µM. Also, the TGI amounted to 24.8 µM with SN12C renal, 8.06 µM in the assay with SW-620 colon, 17.8 µM in the assay on U251 CNS and 23.4 µM in the assay on UO-31 renal.

Consider `CCCCn1cnc2c(SC)ncnc21`, for which the TGI in the assay with EKVX NSCLC, in the assay with HT29 colon, in the assay with IGROV1 ovarian, in the assay with K-562 leukemia, with M14 melanoma and in the assay with SK-MEL-28 melanoma was above 100 µM throughout. Besides, the TGI with SN12C renal, with SW-620 colon, in the assay on U251 CNS and in the assay on UO-31 renal was above 100 µM throughout.
